We go through 24 compounds from article PMC9457746, “Synthesis of Sulfonamides Incorporating Piperidinyl-Hydrazidoureido and Piperidinyl-Hydrazidothioureido Moieties and Their Carbonic Anhydrase I, II, IX and XII Inhibitory Activity” (Molecules, 2022).

As a reminder, the Ki is a dissociation constant, usually derived from enzyme kinetics or from competition with a known ligand. A word on the melting point: it is the temperature, or range, at which the solid turns liquid.

Like-named read-outs stand apart in the source and are kept apart here.

In one series the target is hCA II (Homo sapiens, UniProt P00918). The series can be described thus: stopped flow CO2 hydrase assay, hCA II inhibition.
Another series concerns the target hCA IX (Homo sapiens, UniProt Q16790). The experiment in a line: stopped flow CO2 hydrase assay, hCA IX inhibition.
The target in a further series is hCA I (Homo sapiens, UniProt P00915). The experiment in a line: stopped flow CO2 hydrase assay, hCA I inhibition.
A further series has as its target hCA XII (Homo sapiens, UniProt O43570). The series can be described thus: stopped flow CO2 hydrase assay, hCA XII inhibition.
Setting [1] is: read-out: Ki (nM) hCAII, Table 2, thioureas 6a-y, recombinant enzyme, 15 min preincubation, mean of at least three determinations.
[2] abbreviates: read-out: Ki (nM) hCAIX, Table 2, thioureas 6a-y, recombinant enzyme, 15 min preincubation, mean of at least three determinations.
Setting [3] is: read-out: Ki (nM) hCAI, Table 2, thioureas 6a-y, recombinant enzyme, 15 min preincubation, mean of at least three determinations.
Setting [4] is: read-out: Ki (nM) hCAXII, Table 2, thioureas 6a-y, recombinant enzyme, 15 min preincubation, mean of at least three determinations.

hCA I, sequence (P00915 whole entry): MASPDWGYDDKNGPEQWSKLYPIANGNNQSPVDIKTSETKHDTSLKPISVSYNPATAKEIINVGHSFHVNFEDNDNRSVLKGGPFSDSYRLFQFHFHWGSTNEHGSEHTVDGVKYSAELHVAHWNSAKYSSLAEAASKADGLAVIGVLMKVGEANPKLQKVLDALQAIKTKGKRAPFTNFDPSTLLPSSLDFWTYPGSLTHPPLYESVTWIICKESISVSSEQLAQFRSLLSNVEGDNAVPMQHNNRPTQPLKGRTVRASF
hCA XII, sequence (O43570 25-354): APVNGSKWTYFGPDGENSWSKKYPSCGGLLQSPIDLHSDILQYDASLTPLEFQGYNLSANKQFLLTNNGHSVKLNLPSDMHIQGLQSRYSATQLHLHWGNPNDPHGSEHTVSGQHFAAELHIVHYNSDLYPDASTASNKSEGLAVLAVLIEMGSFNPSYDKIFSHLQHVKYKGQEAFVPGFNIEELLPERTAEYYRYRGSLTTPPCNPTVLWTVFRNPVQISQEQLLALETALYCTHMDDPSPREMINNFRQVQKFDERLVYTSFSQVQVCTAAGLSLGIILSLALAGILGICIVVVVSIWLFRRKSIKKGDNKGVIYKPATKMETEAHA
Description for hCA II: (§1) An Applied Photophysics stopped-flow instrument has been used for assaying the CA catalyzed CO2 hydration activity using the Khalifah procedure [23]. The used indicator was phenol red (0.2 mM), the absorbance maximum was of 557 nm, and the buffer was 20 mM Hepes (pH 7.5), whereas 20 mM Na2SO4 were employed for maintaining the ionic strength constant. […] Uncatalyzed rates were subtracted from the observed total rates. […] Inhibitor and enzyme solutions were preincubated together for 15 min, for assuring the formation of the E–I complex. The inhibition constants were obtained by non-linear least squares using the Cheng–Prusoff equation, as reported earlier [24, 25, 26] and represent the mean from at least three different determinations.
Description for hCA IX: as §1
Description for hCA XII: as §1

On to “N-(1-Phenylethyl)-2-(1-(4-sulfamoylbenzoyl)piperidine-4-carbonyl)hydrazinecarbothioamide [Compound 6x]”, for which the inhibition constant Ki on hCA II (setting [1]) was determined as 7.6 nM; on hCA IX (setting [2]) it was 2.9 nM; at hCA I (setting [3]) it was 76.6 nM; at hCA XII (setting [4]), 10.4 nM.
`COc1ccc(NC(=O)NNC(=O)C2CCN(C(=O)c3ccc(S(N)(=O)=O)cc3)CC2)cc1` [Compound 5q] displayed a melting point of 228 to 230 °C. Also, at hCA II, affinity was put at a Ki of 99.7 nM. The Ki on hCA IX came out at 8.9 nM. In addition, the affinity on hCA I, expressed as Ki, was 487 nM. At hCA XII, the Ki came out at 9.1 nM.
The like results for `COc1cccc(NC(=S)NNC(=O)C2CCN(C(=O)c3ccc(S(N)(=O)=O)cc3)CC2)c1` [Compound 6k, N-(3-methoxyphenyl)-2-(1-(4-sulfamoylbenzoyl)piperidine-4-carbonyl)hydrazine-1-carbothioamide] were, in that order, 214 to 215 °C, 11.2 nM, 25.1 nM, 146 nM and 29.9 nM.
In the case of `COc1cc(NC(=S)NNC(=O)C2CCN(C(=O)c3ccc(S(N)(=O)=O)cc3)CC2)cc(OC)c1OC` [Compound 6m, 2-(1-(4-Sulfamoylbenzoyl)piperidine-4-carbonyl)-N-(3,4,5-trimethoxyphenyl)hydrazinecarbothioamide], the melting point is over 250 °C. The compound also yielded a Ki at hCA II of 36.8 nM. On hCA IX, the Ki came out at 16.6 nM. The compound also displayed a Ki at hCA I of 428 nM. In addition, the Ki at hCA XII stood at 27.3 nM.
Compound `NS(=O)(=O)c1ccc(C(=O)N2CCC(C(=O)NNC(=S)Nc3ccc(Cl)cc3Cl)CC2)cc1` [Compound 6h, N-(2,4-Dichlorophenyl)-2-(1-(4-sulfamoylbenzoyl)piperidine-4-carbonyl)hydrazinecarbothioamide] had a melting point of 220 to 221 °C. This compound registered a Ki on hCA II of 53.4 nM. This compound also had a Ki on hCA IX of 18 nM. This compound registered a Ki on hCA I of 229 nM. The compound further showed a Ki at hCA XII of 2.6 nM. At hCA XII (versus 6g), the “increase in hCA XII activity as compared to the 3,4-dichloro analog” value is about 10 fold.
In turn, `NS(=O)(=O)c1ccc(C(=O)N2CCC(C(=O)NNC(=O)Nc3ccccc3Cl)CC2)cc1` [Compound 5b, N-(2-Chlorophenyl)-2-(1-(4-sulfamoylbenzoyl)piperidine-4-carbonyl)hydrazinecarboxamide] returned a melting point of 214 to 215 °C. Moreover, the Ki at hCA II was 15.3 nM. The compound also gave a Ki on hCA IX of 25.1 nM. On hCA I, the Ki was 164 nM. Further, the inhibition constant Ki on hCA XII stood at 13.6 nM.
Consider `NS(=O)(=O)c1ccc(C(=O)N2CCC(C(=O)NNC(=O)NCc3ccccc3)CC2)cc1` [Compound 5t], for which the inhibition constant Ki was 48.2 nM at hCA II, 40 nM at hCA IX, 77.8 nM at hCA I and 20.1 nM at hCA XII.
`NS(=O)(=O)c1ccc(C(=O)N2CCC(C(=O)NNC(=S)Nc3ccc([N+](=O)[O-])cc3)CC2)cc1` [Compound 6b, N-(4-Nitrophenyl)-2-(1-(4-sulfamoylbenzoyl)piperidine-4-carbonyl)hydrazinecarbothioamide] had a melting point of 236 to 237 °C. The same compound had a Ki at hCA II of 60.4 nM. This compound also showed a Ki on hCA IX of 13.6 nM. In addition, at hCA IX (hCA IX versus hCA I), the “selectivity on hCA IX compared to hCA I” value is reported as “about 22 fold”. Also, at hCA IX (hCA IX versus hCA II), the “selectivity on hCA IX compared to hCA II” value is “about 4 fold”. Moreover, at hCA IX (hCA IX versus hCA XII), the “selectivity on hCA IX compared to hCA XII” value was about 3 fold. In addition, the Ki at hCA I was 298 nM. Also, the affinity at hCA XII, expressed as Ki, was 45 nM.
`NS(=O)(=O)c1ccc(C(=O)N2CCC(C(=O)NNC(=O)Nc3c(F)cccc3F)CC2)cc1` [Compound 5i, N-(2,6-difluorophenyl)-2-(1-(4-sulfamoylbenzoyl)piperidine-4-carbonyl)hydrazinecarboxamide] showed a melting point of 194 to 195 °C. For the same compound, the Ki at hCA II is 8.6 nM. Further, affinity at hCA IX was put at a Ki of 10.1 nM. For the same compound, at hCA I, the Ki came to 184 nM. The inhibition constant Ki on hCA XII stood at 12.7 nM.
For `NS(=O)(=O)c1ccc(C(=O)N2CCC(C(=O)NNC(=S)Nc3cccc(Cl)c3)CC2)cc1` [Compound 6e, N-(3-Chlorophenyl)-2-(1-(4-sulfamoylbenzoyl)piperidine-4-carbonyl)hydrazinecarbothioamide], the melting point was in the range of 226 to 227 °C. The compound also came in with an inhibition constant (Ki) at hCA II of 16.6 nM. On hCA IX, this compound showed a Ki of 18 nM. The compound also had a Ki at hCA I of 323 nM. This compound had a Ki on hCA XII of 9.7 nM.
`Cc1cccc(C)c1NC(=S)NNC(=O)C1CCN(C(=O)c2ccc(S(N)(=O)=O)cc2)CC1` [Compound 6u, N-(2,6-Dimethylphenyl)-2-(1-(4-sulfamoylbenzoyl)piperidine-4-carbonyl)hydrazinecarbothioamide] came in with a melting point of 233 to 234 °C. This compound also came in with a Ki at hCA II of 89.6 nM. Also, the affinity at hCA IX corresponds to a Ki of 4.7 nM. The same compound had a Ki on hCA I of 308 nM. On hCA XII, this compound showed a Ki of 9.5 nM.
Regarding `NS(=O)(=O)c1ccc(C(=O)N2CCC(C(=O)NNC(=O)Nc3ccc(F)cc3)CC2)cc1` [Compound 5h], the Ki at hCA II turned out to be 12.1 nM; at hCA IX it was 2.1 nM; at hCA I it was 60.6 nM; at hCA XII it was 24 nM.
On to `NS(=O)(=O)c1ccc(C(=O)N2CCC(C(=O)NNC(=O)Nc3cccc(Cl)c3)CC2)cc1` [Compound 5c], for which the Ki came out at 5.1 nM on hCA II, 37.8 nM at hCA IX, 218 nM at hCA I and 44.6 nM on hCA XII.
The matching figures for `COc1ccc(NC(=O)NNC(=O)C2CCN(C(=O)c3ccc(S(N)(=O)=O)cc3)CC2)c(OC)c1` [Compound 5r]: 19.8 nM, 23.2 nM, 322 nM and 15.6 nM.
As to `Cc1cc(C)cc(NC(=O)NNC(=O)C2CCN(C(=O)c3ccc(S(N)(=O)=O)cc3)CC2)c1` [Compound 5n, N-(3,5-Dimethylphenyl)-2-(1-(4-sulfamoylbenzoyl)piperidine-4-carbonyl)hydrazinecarboxamide], the melting point was in the range of 216 to 217 °C. The compound also had a Ki on hCA II of 47.8 nM. In addition, affinity on hCA IX was put at a Ki of 34.4 nM. For the same compound, on hCA I, the Ki came out at 165 nM. Moreover, the affinity on hCA XII, expressed as Ki, was 44.7 nM.
For `NS(=O)(=O)c1ccc(C(=O)N2CCC(C(=O)NNC(=S)Nc3cccc(F)c3)CC2)cc1` [Compound 6o, N-(3-Fluorophenyl)-2-(1-(4-sulfamoylbenzoyl)piperidine-4-carbonyl)hydrazinecarbothioamide], the results for the Ki on hCA II, at hCA IX (setting [2]) and at hCA I were 102 nM, 5.6 nM and 590 nM, respectively.
`NS(=O)(=O)c1ccc(C(=O)N2CCC(C(=O)NNC(=S)Nc3ccccc3F)CC2)cc1` [Compound 6n, N-(2-Fluorophenyl)-2-(1-(4-sulfamoylbenzoyl)piperidine-4-carbonyl)hydrazinecarbothioamide] displayed a melting point of 219 to 220 °C. The compound also came in with a Ki on hCA II of 15.2 nM. The affinity on hCA IX, expressed as Ki, was 6.9 nM. This compound displayed a Ki at hCA I of 431 nM. This compound came in with a Ki on hCA XII of 4.9 nM.
In the case of `NS(=O)(=O)c1ccc(C(=O)N2CCC(C(=O)NNC(=O)Nc3c(Cl)cccc3Cl)CC2)cc1` [Compound 5e], the Ki on hCA II amounted to 68.8 nM; on hCA IX, 28.9 nM; at hCA I it was 259 nM; at hCA XII, 16.4 nM.
For the compound `COc1ccc(CNC(=O)NNC(=O)C2CCN(C(=O)c3ccc(S(N)(=O)=O)cc3)CC2)cc1` [Compound 5u], the Ki at hCA II is 40.7 nM; on hCA IX it was 45.3 nM; at hCA I, 130 nM; on hCA XII it was 6.4 nM. Moreover, the “selectivity for hCAXII compared with hCAII and hCAIX” value on hCA XII (hCA XII versus hCA II and hCA IX) is “about 6 fold”.
Consider “4-(4-(4-(4-(Trifluoromethyl)phenyl)piperazine-1-carbonyl)piperidine-1-carbonyl)benzenesulfonamide [Compound 6c]”, for which the figures for the Ki at hCA IX (setting [2]) and on hCA XII (setting [4]) were 7.2 nM and 4.5 nM, respectively.
On to `NS(=O)(=O)c1ccc(C(=O)N2CCC(C(=O)NNC(=O)Nc3ccccc3)CC2)cc1` [Compound 5a], for which the Ki at hCA II turned out to be 29.3 nM; on hCA IX, 16.5 nM; at hCA I it was 93.3 nM; at hCA XII, 22.8 nM.
As to “2-(1-(3-sulfamoylbenzoyl)piperidine-4-carbonyl)-N-(p-tolyl)hydrazine-1-carbothioamide [Compound 6t]”, the Ki at hCA II (setting [1]) was 58 nM; on hCA IX (setting [2]), 28.4 nM; on hCA I (setting [3]), 613 nM; on hCA XII (setting [4]), 31 nM.
Turning to `Cc1ccc(NC(=O)NNC(=O)C2CCN(C(=O)c3ccc(S(N)(=O)=O)cc3)CC2)cc1` [Compound 5l], the Ki turned out to be 22 nM at hCA II, 8.1 nM on hCA IX, 81.7 nM on hCA I and 36.7 nM on hCA XII.
In the case of “2-(1-(3-sulfamoylbenzoyl)piperidine-4-carbonyl)-N-(p-tolyl)hydrazine-1-carbothioamide [Compound 6s]”, the Ki on hCA II (setting [1]) came to 4.3 nM; at hCA IX (setting [2]) it was 9.3 nM; at hCA I (setting [3]), 56.5 nM; at hCA XII (setting [4]), 2.6 nM. Moreover, the “increase in hCA II activity as compared to the 2-methyl analog” value on hCA II (versus 6r) is “about 8 fold”. The “increase in hCA XII activity as compared to the 2-methyl analog” value at hCA XII (versus 6r) is “about 8 fold”.
